ChEMBL document CHEMBL1140522, “Peptidomimetic inhibitors of farnesyltransferase with high in vitro activity and significant cellular potency” (Bioorg Med Chem Lett, 2007)
Active and inactive are the calls of the source. No cut-off for these calls is given here.

Experiments:
[1] = Inhibition of farnesyl transferase; parameters: species or system Homo sapiens
[2] = Antiproliferative effect on human aortic smooth muscle cells; assay type: functional
[3] = species on record: Homo sapiens; assay: Effect on FTase mediated Ras farnesylation in human aortic smooth muscle cells at 250 uM after 72 hrs by Western blot analysis
[4] = species on record: Homo sapiens; assay: Effect on FTase mediated Ras farnesylation in human aortic smooth muscle cells at 2 uM after 72 hrs by Western blot analysis

SMILES | IC50 [1] [µM] | other results
COc1ccccc1-c1c(CN[C@@H](CCSC)C(=O)O)cccc1NC(=O)C[C@@H]1COc2ncccc2O1 (mixture of isomers) | 151 | 
COc1ccccc1-c1cc(OC[C@@H]2COc3ncccc3O2)ccc1C(=O)N[C@H](CCSC)C(=O)O | 0.112 | 
COc1ccccc1-c1cc(OC[C@H]2COc3ncccc3O2)ccc1C(=O)N[C@@H](CCSC)C(=O)O | 0.053 | 
CSCC[C@H](NCc1cccc(NC(=O)C[C@@H]2COc3ncccc3O2)c1-c1ccccc1C)C(=O)O (mixture of isomers) | 16 | 
CSCC[C@H](NC(=O)c1ccc(OC[C@H]2COc3ncccc3O2)cc1-c1ccccc1C)C(=O)O | 0.05 | IC50 [2]: 158 µM
COc1ccccc1-c1c(CN[C@H](CCSC)C(=O)O)cccc1NC(=O)C[C@H]1COc2ncccc2O1 (mixture of isomers) | 843 | 
CSCC[C@@H](NC(=O)c1ccc(OC[C@@H]2COc3ncccc3O2)cc1-c1ccccc1C)C(=O)O | 0.053 | Activity [3]: Active; IC50 [2]: 16.8 µM
COc1ccccc1-c1cc(OC[C@H]2COc3ncccc3O2)ccc1C(=O)N[C@H](CCSC)C(=O)O | > 1000 | 
CSCC[C@@H](NCc1cccc(NC(=O)C[C@@H]2COc3ncccc3O2)c1-c1ccccc1C)C(=O)O | > 1000 | 
CCC(C)(C)C(=O)O[C@H]1C[C@@H](C)C=C2C=C[C@H](C)[C@H](CC[C@@H]3C[C@@H](O)CC(=O)O3)[C@H]21 |  | Activity [4]: Active
CSCC[C@@H](NCc1cccc(NC(=O)C[C@H]2COc3ncccc3O2)c1-c1ccccc1C)C(=O)O (mixture of isomers) | > 1000 | 
COc1ccccc1-c1cc(OC[C@@H]2COc3ncccc3O2)ccc1C(=O)N[C@@H](CCSC)C(=O)O (mixture of isomers) | 0.055 | 
CSCC[C@H](NCc1cccc(NC(=O)C[C@H]2COc3ncccc3O2)c1-c1ccccc1C)C(=O)O | 12 | 
COc1ccccc1-c1c(CN[C@@H](CCSC)C(=O)O)cccc1NC(=O)C[C@H]1COc2ncccc2O1 | 302 | 
CSCC[C@H](NC(=O)c1ccc(OC[C@@H]2COc3ncccc3O2)cc1-c1ccccc1C)C(=O)O | 0.045 | Activity [3]: Active; IC50 [2]: 58.8 µM
CSCC[C@@H](NC(=O)c1ccc(OC[C@H]2COc3ncccc3O2)cc1-c1ccccc1C)C(=O)O | 0.075 | IC50 [2]: 238 µM
COc1ccccc1-c1c(CN[C@H](CCSC)C(=O)O)cccc1NC(=O)C[C@@H]1COc2ncccc2O1 | > 1000 | 
